# Results published in patent US12076307B2, “Compositions for prevention or treatment of acute radiation syndrome and other radiation exposure” (priority 2017, dated 2024).
# Columns and labels:
# [1] = test system: gemcitabine-treated mice; assay: Gemcitabine-induced neutropenia, PLAG with pegfilgrastim; assay type: in vivo, mouse
# Description: In this work, neutrophil counts were compared in four groups of mice: control mice, gemcitabine-treated mice, gemcitabine/pegfilgrastim-treated mice, and gemcitabine/pegfilgrastim/PLAG-treated mice. Gemcitabine was administered intraperitoneally to induce neutropenia. On Day 0, pegfilgrastim was administered subcutaneously. PLAG (50 mg/kg) was orally administered every day during the treatment course. Blood was taken from the orbital sinuses on Days 0, 3, and 5, and neutrophils were counted. […] Pegfilgrastin is polyethylene glycol (PEG)-conjugated granulocyte colony-stimulating factor (PEGylated-G-CSF, pegfilgrastim).
# [2] = biological target: CYP3A4 (Homo sapiens, UniProt P08684); assay: CYP enzyme inhibition in human liver microsomes, CYP3A4
# Chain of CYP3A4 (P08684 whole entry): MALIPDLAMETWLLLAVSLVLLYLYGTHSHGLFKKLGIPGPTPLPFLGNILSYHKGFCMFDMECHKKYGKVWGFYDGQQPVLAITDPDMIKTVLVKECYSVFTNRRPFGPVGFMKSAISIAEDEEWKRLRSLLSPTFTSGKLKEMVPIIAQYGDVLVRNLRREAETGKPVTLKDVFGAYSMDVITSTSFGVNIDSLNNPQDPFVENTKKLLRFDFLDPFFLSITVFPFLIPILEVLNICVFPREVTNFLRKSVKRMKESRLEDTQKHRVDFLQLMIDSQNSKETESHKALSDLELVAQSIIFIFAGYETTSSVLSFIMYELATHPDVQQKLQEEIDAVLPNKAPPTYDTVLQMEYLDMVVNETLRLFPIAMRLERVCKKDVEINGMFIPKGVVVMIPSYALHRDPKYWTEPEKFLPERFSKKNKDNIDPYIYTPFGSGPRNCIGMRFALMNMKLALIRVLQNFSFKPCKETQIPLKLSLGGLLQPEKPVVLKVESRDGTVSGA
# From the text: CYP1A2, CYP2C9, CYP2C19, CYP2D6, and CYP3A4 are the CYP subfamily, which plays a critical role in the metabolism of most drugs.
# [3] = In vitro plasma stability, human plasma; assay type: in vitro ADME; conditions: Humans; 1 μM; 37° C.; n=3
# Description: To assess the stability of EC-18 in plasma, the test material, or the standard reference material (test concentration 1 μM) was mixed with rat and human plasma and allowed to react for 1 hr at 37° C. Then, the residual EC-18 concentration was measured by LC-MS/MS. As standard reference materials, albendazole (a drug with high plasma stability) and vinpocetine (a drug with low plasma stability) were tested in parallel. When allowed to react with rat and human plasma for 1 hr, the residual EC-18 concentration in both rat and human plasma was >99% of the initial dose.
# [4] = biological target: T1, CYP2C9 (Homo sapiens, UniProt P11712); assay: CYP enzyme inhibition in human liver microsomes, CYP2C9; assay type: in vitro ADME
# T1 construct: incubated with human liver microsomes; from tissue; host or cells: human liver microsomes
# T1 sequence (P11712 whole entry): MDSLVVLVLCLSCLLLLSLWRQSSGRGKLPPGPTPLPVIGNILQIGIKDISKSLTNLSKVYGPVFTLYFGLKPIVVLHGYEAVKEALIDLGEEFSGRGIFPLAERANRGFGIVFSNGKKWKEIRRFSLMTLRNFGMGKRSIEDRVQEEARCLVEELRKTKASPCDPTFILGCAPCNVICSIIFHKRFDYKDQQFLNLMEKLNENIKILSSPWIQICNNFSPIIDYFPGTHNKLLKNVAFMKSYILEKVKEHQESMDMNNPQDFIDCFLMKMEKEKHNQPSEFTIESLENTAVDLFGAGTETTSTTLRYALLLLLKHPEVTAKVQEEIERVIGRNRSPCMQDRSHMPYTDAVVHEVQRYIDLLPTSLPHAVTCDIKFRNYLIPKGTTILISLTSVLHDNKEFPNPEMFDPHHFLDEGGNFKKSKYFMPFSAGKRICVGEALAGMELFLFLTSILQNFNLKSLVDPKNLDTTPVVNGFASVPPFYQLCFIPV
# [5] = test system: Sprague-Dawley rats; assay: Central nervous system of rats (FOB); assay type: in vivo, rat; conditions: doses up to 2000 mg/kg; to 24 hrs
# Description: Sprague-Dawley rats (n=8 males/group) received control material (olive oil) or EC-18 at 500, 1000, and 2000 mg/kg. The functional observational battery test, which included observations inside the cage, in open space, and while holding in the hands, along with sensory-motor function, and body temperature measurements were performed before EC-18 administration and 0.5, 1, 3, 6, and 24 hrs after control or EC-18 administration.
# [6] = biological target: T2, CYP1A2 (Homo sapiens, UniProt P05177); assay: in vitro; assay type: in vitro ADME; conditions: human, microsomes
# T2 construct: incubated with human liver microsomes; from tissue; host or cells: human liver microsomes
# T2 sequence (P05177 whole entry): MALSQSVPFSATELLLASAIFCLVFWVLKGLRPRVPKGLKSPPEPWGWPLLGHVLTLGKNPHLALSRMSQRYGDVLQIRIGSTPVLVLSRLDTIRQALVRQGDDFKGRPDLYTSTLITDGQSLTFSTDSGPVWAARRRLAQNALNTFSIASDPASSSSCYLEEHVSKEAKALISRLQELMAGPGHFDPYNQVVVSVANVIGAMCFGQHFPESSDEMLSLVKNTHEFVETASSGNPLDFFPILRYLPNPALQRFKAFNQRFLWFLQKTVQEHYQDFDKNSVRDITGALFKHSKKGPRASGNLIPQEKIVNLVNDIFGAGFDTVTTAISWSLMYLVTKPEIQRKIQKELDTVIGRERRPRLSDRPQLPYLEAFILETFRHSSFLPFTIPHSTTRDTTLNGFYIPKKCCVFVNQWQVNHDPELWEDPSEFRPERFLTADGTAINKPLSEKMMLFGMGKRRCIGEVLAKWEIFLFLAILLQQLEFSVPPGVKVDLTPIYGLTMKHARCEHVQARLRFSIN
# [7] = In vitro metabolic stability / metabolite screening, statements over all species; assay type: in vitro ADME, rat, dog, monkey, human
# Description: [^14C]EC-18 or the positive control (7-ethoxycoumarin; 7-EC) reacted with microsomes prepared from hepatocytes of rats, dogs, monkeys, and humans, with or without cofactors, for 60 and 120 min. Then, the residual EC-18 concentration over time was measured by LC-RID ([^14C]EC-18) or LC-MS/MS (7-EC) (FIG. 63 and FIG. 64).
# The LC-RID chromatographic profiles of radioactive metabolites produced in the 2-hr incubation reaction mixtures of the same test systems A, B, and C used to assess the metabolic and non-metabolic elimination rates of EC-18 were compared to the LC-UV chromatographic profiles of the synthetic reference material. […] The relative radioactivity of EC-18 accounted for 42-67% of total radioactivity. The peaks designated as M2, M3, and M5 were also determined in all species, and their relative radioactivity accounted for 12-34% of total radioactivity. The peaks of M4 and M6 were determined in monkeys and humans. M1 was abundantly detected in all species, but it was assumed to be a peak of early elution. The LC-UV chromatograms of reaction mixtures in each test system (FIGS. 65A-65C) and the relative radioactivity of the screened metabolites are shown in Table 25.
# [8] = biological target: T3, OAT3 (Homo sapiens, UniProt Q8TCC7); assay: Drug transporter inhibition, OAT3; assay type: in vitro ADME; conditions: 100 nM [3H] estrone-3-sulfate; transfected HEK-293 cells
# T3 construct: expressed in transfected cells; host or cells: HEK-293
# T3 sequence (Q8TCC7 whole entry, species assumed): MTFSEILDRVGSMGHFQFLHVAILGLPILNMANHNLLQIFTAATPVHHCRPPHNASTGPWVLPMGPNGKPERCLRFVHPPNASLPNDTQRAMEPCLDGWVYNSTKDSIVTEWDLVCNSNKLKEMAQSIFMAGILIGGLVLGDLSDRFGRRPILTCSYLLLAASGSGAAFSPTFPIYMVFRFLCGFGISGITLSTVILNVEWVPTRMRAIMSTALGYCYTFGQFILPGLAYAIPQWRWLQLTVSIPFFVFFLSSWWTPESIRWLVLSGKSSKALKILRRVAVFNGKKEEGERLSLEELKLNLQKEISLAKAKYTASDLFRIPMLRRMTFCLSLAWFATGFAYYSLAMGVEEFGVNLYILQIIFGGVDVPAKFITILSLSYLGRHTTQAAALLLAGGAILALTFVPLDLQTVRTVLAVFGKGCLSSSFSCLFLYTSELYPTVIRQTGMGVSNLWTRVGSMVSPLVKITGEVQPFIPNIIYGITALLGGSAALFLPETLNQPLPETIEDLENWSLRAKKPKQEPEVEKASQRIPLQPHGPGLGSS
# Description: This study examined the potential of EC-18 to interact with the transporter proteins that have been known to be involved in the absorption of commercially available drugs. EC-18 was pre-incubated with HEK-293 cells and LLC-PK1 cells that were transfected with the genes of most drug transporters as follows: OATP1B1, OATP1B3, OAT1, OAT3 and OCT2, and BCRP and P-gp, respectively.
# [9] = test system: NZW rabbit; assay: Embryo-fetal developmental toxicity study, NZW rabbit; assay type: in vivo; conditions: Oral 13 days
# From the text: (§1) Various toxicology studies have been performed. All studies were GLP-compliant unless otherwise noted.
# [10] = as above; assay type: in vivo; conditions: NZW, rabbit, in vivo; definitive study; Oral 13 days
# From the text: as §1
# [11] = test system: CXCL8; assay: CXCL8 release in HaCaT cells treated with CM or rhHMGB1; assay type: cell-based, human
# Description: An additional experiment was tested for assessing whether EC-18 treatment leads to early termination of the RIPK1/3-MLKL-mediated downstream necroptosis pathway. This was performed by using DAMP-containing conditioned media (CM) harvested from HaCaT cells, irradiated for 48 hrs, and analyzed after 2 or 72 hrs of EC-18 treatment. […] To further confirm that DAMPs in CM contribute to the activation of a necroptosis signaling pathway in a paracrine manner, recombinant human HMGB1 (rhHMGB1) was treated directly to the normal HaCaT cells. The rhHMGB1 elevated the phosphorylation of RIPK1/3 and MLKL after 2 hrs and subsequently released HMGB1 and HSP90 (FIGS. 35C-35D). To evaluate whether EC-18 mitigates the activation of RIPK1/3 and MLKL, 10 or 100 μg/mL of EC-18 was treated before the addition of CM or rhHMGB1. As a result, EC-18 lowered the phosphorylation of RIPK/3 and MLKL in both CM- and rhHMGB1-treated cells after 2 hrs. Release of HMGB1 and Hsp90 was also subsided by EC-18 after 72 hrs of post addition of CM or rhHMGB1 to the cells (FIGS. 35A-35D). TLR4-induced necroptosis signaling pathway caused by DAMP release produces cytokines, such as CXCL8, a chemotactic cytokine for neutrophils. As CXCL8 increases upon tissue damage, it was measured in cells treated with CM or rhHMGB1 as a measure of inflammation. CXCL8 of CM from cells treated with chemo and radiotherapy was used for this evaluation. […] Moreover, rhHMGB1 increased the production of CXCL8, modulated by EC-18.
smiles,measurement,setting,value
"CCCCC/C=C\C/C=C\CCCCCCCC(=O)OC(COC(C)=O)COC(=O)CCCCCCCCCCCCCCC (stereo not shown) [EC-18, 1-palmitoyl-2-linoleoyl-3-acetylglycerol]",blood cell apoptosis and neutrophil release from bone marrow,[1]; PLAG 50 mg/kg,did not affect
same,pegfilgrastim-induced CXCR2 expression in neutrophils,[1]; PLAG 50 mg/kg,markedly decreased
same,neutrophil counts,"[1]; gemcitabine/pegfilgrastim/PLAG 50 mg/kg oral daily, third day following pegfilgrastim",dramatically increased
same,IC50,[2],0.0268 mM
same,Residual Concentration Relative to the Initial Dose After Reaction for 1 hr in Plasma,[3],>99%
same,IC50,[4],7.99 mM
same,CNS (functional observational battery),[5],did not affect the CNS
same,IC50,[6],24.4 mM
same,relative radioactivity of total radioactivity,"[7]; 2-hr incubation, all species and test systems",42-67%
same,residual EC-18 concentration relative to initial concentration,"[7]; 1 hr, test systems A, B, C, all species",≥ 50%
same,order of residual EC-18 concentration,[7]; 2 hrs,human>rat and dog>monkey
same,residual EC-18 concentration,"[7]; 2 hrs, all test systems, all species except monkeys",≥ 50%
same,IC50,[8],> 0.032 mM
same,findings,"[9]; DRF study, 0, 125, 250, 500 mg/kg",No specific findings
same,mortality,"[9]; DRF study, 250 mg/kg dose group, day 8 of pregnancy, attributed to loss of appetite before dosing",A single case of death
same,mortality,"[9]; definitive study, 0, 125, 250, 500 mg/kg",No dead animals
same,NOAEL at 13 days,[10],500 mg/kg/day
same,CXCL8 level,[11]; CM-treated cells,decreased in a dose-dependent manner
same,CXCL8 production,[11]; rhHMGB1-treated cells,modulated
